PubChem BioAssay AID1918999 (Molecular Pharmacology Branch, DTP, NCI, 2023)
Several values for one entry are separate records, joined by “and”; a condition that tells them apart may be missing. Identical values can stand only once.

System: 556581-035-R-J1-PDC complex spheroid growth
Assay: Anticancer human tumor 556581-035-R-J1-PDC patient-derived ovarian carcinoma cell line growth inhibition [AhR]
Details: for viability, T/C: stronger effect = lower value
Source text: Multicellular complex tumor spheroid response to aryl hydrocarbon receptor antagonists in combination with a variety of drugs and investigational agents in selected tumor cell lines
The current study was undertaken to assess response to aryl hydrocarbon receptor antagonists in combination with standard-of-care drugs and investigational agents in solid tumor complex spheroid models. Complex spheroids include a stromal component modeled by human endothelial cells (HUVEC) and fibroblasts modeled by human mesenchymal stem cells (MSCs). The concentration ranges selected for each drug and investigational agent were based upon clinically achievable concentrations if the clinical Cmax of the agent was known.
Compounds. The drugs and investigational agents: BAY 2416964 (NSC825713), GNF351 (NSC835774), CH-223191 (NSC835775), CPI-455 (NSC825282), aza-TdCyd (NSC777586), decitabine (NSC127716), belinostat (NSC758774), entinostat (NSC756642), pevonedistat (NSC761192), tazemetostat (NSC777109), talazoparib (NSC765396), olaparib (NSC753686), selinexor (NSC780203), nedisertib (M3814, NSC802822), bortezomib (NSC756655), venetoclax (NSC766270), doxorubicin (NSC123127), elimusertib (BAY189344, NSC800525), ceralasertib (AZD6738, NSC777638), TAK-243 (NSC785004), alisertib (NSC759677), etoposide (NSC141540), topotecan (NSC609699), eribulin (NSC707389), gemcitabine (NSC613327), carboplatin (NSC241240), cisplatin (NSC119875), and SN-38 (NSC673596) were obtained from the National Cancer Institute (NCI) Developmental Therapeutics Program Chemical Repository (32). The FDA-approved anticancer drug set is available from the Developmental Therapeutics Program at https://dtp.cancer.gov/organization/dscb/obtaining/available plates.htm. […] The stock solutions were prepared in dimethyl sulfoxide (DMSO, Sigma-Aldrich, St. Louis, MO, cat. D2650), except for the platinum compounds which were prepared in saline (Quality Biological, Gaithersburg, MD, cat. 114-055-101), at 800-fold the tested concentration and stored at -70 degrees C prior to their use. All drugs and investigational agents were tested over a range starting from a high concentration at or near the clinical Cmax and decreasing in half-log increments. If the clinical Cmax for an agent had not been determined, the highest concentration tested was 10 microM (Table 1).
Cell Culture. All cells were maintained in an incubator at 37 degrees C and 5% CO2 with 95% humidity. The PDC lines were cultured according to standard operating procedures established by the NCI PDMR (https://pdmr.cancer.gov). Briefly, all PDCs were thawed and cultured in Matrigel-coated flasks prepared with a working solution of 1X Ham's F-12 nutrient mix, without supplementation (Invitrogen, Waltham, MA, cat. 11765054), 100 U/mL penicillin-streptomycin (Invitrogen, cat. 15140122), and 2.5% Matrigel (Corning Inc., Corning, NY, cat. 354248) for the first three passages. All PDCs were cultured in complete DMEM/F-12 media containing advanced DMEM/F-12 (Invitrogen, cat. 12634028), 4.9% defined fetal bovine serum, heat inactivated (HyClone Laboratories Inc., Logan, UT, cat. SH30070.03HI), 389 ng/mL hydrocortisone (Sigma-Aldrich, cat. H4001), 9.7 ng/mL human EGF recombinant protein (Invitrogen, cat. PHG0313), 23.4 microg/mL adenine (Sigma-Aldrich, cat. A2786), 97.3 U/mL penicillin-streptomycin (Invitrogen, cat. 15140122), 1.9 mM L-glutamine (Invitrogen, cat. 25030081), and 9.7 microM Y-27632 dihydrochloride (Tocris Bioscience, Bristol, United Kingdom, cat. 1254). The PDCs were cultured in complete DMEM/F12 media without 10 microM Y-27632 dihydrochloride for at least two passages prior to the screen. The established cell lines NCI-H1341 and […] were cultured in DMEM/F-12, HEPES (Invitrogen, cat. 11330032), 5% defined fetal bovine serum (HyClone Laboratories Inc., cat. SH30070.03), ITS premix universal culture supplement [insulin (5 microg/mL), transferrin (5 microg/mL), and selenious acid (5 ng/mL)] […]
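Throughout, for viability, T/C: compound exposure lasted 7 days; 100% = DMSO vehicle control growth.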

With `CC(C)CC(NC(=O)C(Cc1ccccc1)NC(=O)c1cnccn1)B(O)O` (centres undefined) the viability, T/C (compound 0.000949 µM) was 105% and 95.7% and 87.9%, the viability, T/C (compound 0.003 µM) was 101% and 97.8% and 87.1% and the viability, T/C (compound 0.00949 µM) was 13.2% and 10.6% and 2.65%. For the same molecule, the viability, T/C (compound 0.03 µM) was 1.02% and 0.36% and 1.1%, the viability, T/C (compound 0.0949 µM) was 0.22% and 0.29% and 0.24% and the viability, T/C (compound 0.3 µM) was 0.28% and 0.29% and 0.34%. For the same molecule, the IC50 (curve of compound) was 5.87 nM and 5.61 nM and 4.98 nM.

With `CC(C)c1c(-c2ccccc2)nc2c(C#N)c[nH]n2c1=O` the viability, T/C (compound 0.0316 µM) was 102% and 99.4% and 99.2%, the viability, T/C (compound 0.1 µM) was 105% and 102% and 98.3% and the viability, T/C (compound 0.316 µM) was 92.7% and 106% and 104%. The viability, T/C (compound 1 µM) was 101% and 106% and 99%, the viability, T/C (compound 3.16 µM) was 95.7% and 110% and 93.8% and the viability, T/C (compound 10 µM) was 86.8% and 94.4% and 83.1%. The IC50 (curve of compound) was greater than 10000 nM.

For `CC(CO)NC(=O)c1cc(-c2ccc(Cl)cc2)nn(-c2cnn(C)c2)c1=O` (centres undefined), the viability, T/C (compound 0.1 µM) was 98.9% [middle of 20 runs] and the IC50 (compound alone, run of 05/31/2022) was greater than 10000 nM.

For `CC1(C)CCC(CN2CCN(c3ccc(C(=O)NS(=O)(=O)c4ccc(NCC5CCOCC5)c([N+](=O)[O-])c4)c(Oc4cnc5[nH]ccc5c4)c3)CC2)=C(c2ccc(Cl)cc2)C1`, the viability, T/C (compound 0.0316 µM) was 98.3% and 100% and 107%, the viability, T/C (compound 0.1 µM) was 102% and 104% and 108% and the viability, T/C (compound 0.316 µM) was 88.4% and 106% and 96.5%. For the same molecule, the viability, T/C (compound 1 µM) was 90.5% (2×) and 107%, the viability, T/C (compound 3.16 µM) was 97.1% and 101% and 97.2% and the viability, T/C (compound 10 µM) was 75% and 79.2% and 73.8%. The IC50 (curve of compound) was greater than 10000 nM.

With `CC1COCCN1c1cc(-c2ccnn2C)c2ccnc(-c3ccn[nH]3)c2n1` (centres undefined) the viability, T/C (compound 0.00316 µM) was 97.2% and 110% and 109%, the viability, T/C (compound 0.01 µM) was 101% and 105% and 102% and the viability, T/C (compound 0.0316 µM) was 105% and 95.4% and 98.4%. For the same molecule, the viability, T/C (compound 0.1 µM) was 78.3% and 80.3% and 80.1%, the viability, T/C (compound 0.316 µM) was 58.9% (2×) and 65.4% and the viability, T/C (compound 1 µM) was 45.2% and 48.2% and 48.4%. The IC50 (curve of compound) was 670 nM and 897 nM and 827 nM.

With `CC1COCCN1c1cc(C2(S(C)(=N)=O)CC2)nc(-c2ccnc3[nH]ccc23)n1` (centres undefined) the viability, T/C (compound 0.0316 µM) was 104% and 101% and 99.6%, the viability, T/C (compound 0.1 µM) was 103% and 105% and 107% and the viability, T/C (compound 0.316 µM) was 96.5% and 102% and 92.8%. For the same molecule, the viability, T/C (compound 1 µM) was 86.3% and 92.2% and 88.4%, the viability, T/C (compound 3.16 µM) was 84.8% (2×) and 74.1% and the viability, T/C (compound 10 µM) was 59.5% and 60.3% and 57.7%. The IC50 (curve of compound) was greater than 10000 nM.

`CCN(c1cc(-c2ccc(CN3CCOCC3)cc2)cc(C(=O)NCc2c(C)cc(C)[nH]c2=O)c1C)C1CCOCC1` was tested, and the viability, T/C (compound 0.00949 µM) was 98.6% and 100% and 96.3%, the viability, T/C (compound 0.03 µM) was 110% and 102% and 118% and the viability, T/C (compound 0.0949 µM) was 97.2% and 104% and 89.5%. For the same molecule, the viability, T/C (compound 0.3 µM) was 96.6% and 91% and 102%, the viability, T/C (compound 0.949 µM) was 96.9% and 87.3% and 106% and the viability, T/C (compound 3 µM) was 102% and 91.7% and 108%. The IC50 (curve of compound) was greater than 3000 nM.

`CC[C@@]1(O)C(=O)OCc2c1cc1n(c2=O)Cc2cc3c(CN(C)C)c(O)ccc3nc2-1` was tested, and the viability, T/C (compound 0.000316 µM) was 101% and 94.3% and 103%, the viability, T/C (compound 0.001 µM) was 103% and 90.5% and 99.5% and the viability, T/C (compound 0.00316 µM) was 91.3% and 91.8% and 95.9%. For the same molecule, the viability, T/C (compound 0.01 µM) was 87.9% and 84.7% and 81.2%, the viability, T/C (compound 0.0316 µM) was 77.2% and 66.1% and 69.9% and the viability, T/C (compound 0.1 µM) was 54.1% and 51.6% and 47%. The IC50 (curve of compound) was > 100 nM and 86.9 nM.

`CCc1c2c(nc3ccc(O)cc13)-c1cc3c(c(=O)n1C2)COC(=O)[C@]3(O)CC` was tested, and the viability, T/C (compound 0.000949 µM) was 89.1% and 96% and 90.5%, the viability, T/C (compound 0.003 µM) was 75% and 95% and 73.6% and the viability, T/C (compound 0.00949 µM) was 54.5% and 61% and 53.9%. The viability, T/C (compound 0.03 µM) was 39.9% and 46% and 40.5%, the viability, T/C (compound 0.0949 µM) was 17.3% and 25.3% and 22.7% and the viability, T/C (compound 0.3 µM) was 10.3% and 15.8% and 10.7%. For the same molecule, the IC50 (curve of compound) was 13.6 nM and 21.3 nM and 13.7 nM.

With `COc1cc(C2c3cc4c(cc3C(OC3OC5COC(C)OC5C(O)C3O)C3COC(=O)C23)OCO4)cc(OC)c1O` (centres undefined) the viability, T/C (compound 0.0316 µM) was 104% and 107% and 99.2%, the viability, T/C (compound 0.1 µM) was 103% (2×) and 100% and the viability, T/C (compound 0.316 µM) was 84.9% and 82.3% and 74.7%. The viability, T/C (compound 1 µM) was 78.2% and 84.1% and 76.3%, the viability, T/C (compound 3.16 µM) was 62.1% and 66.4% and 67.5% and the viability, T/C (compound 10 µM) was 45.1% and 44.2% and 47.1%. The IC50 (curve of compound) was 7210 nM and 8060 nM and 9560 nM.

`COc1cc(Nc2ncc3c(n2)-c2ccc(Cl)cc2C(c2c(F)cccc2OC)=NC3)ccc1C(=O)O` was tested, and the viability, T/C (compound 0.0316 µM) was 81.1% and 79.8% and 91.3%, the viability, T/C (compound 0.1 µM) was 75% and 75.9% and 76% and the viability, T/C (compound 0.316 µM) was 68.9% and 62.2% and 64.4%. For the same molecule, the viability, T/C (compound 1 µM) was 79.5% and 64.8% and 63%, the viability, T/C (compound 3.16 µM) was 62.2% and 61.8% and 58.2% and the viability, T/C (compound 10 µM) was 54% and 52% and 52.1%. For the same molecule, the IC50 (curve of compound) was greater than 10000 nM.

For `COc1ccc([C@@H](O)c2cc(-c3ncnc4cc(N5CCOCC5)ccc34)c(F)cc2Cl)nn1`, the viability, T/C (compound 0.0316 µM) was 96.5% and 101% and 108%, the viability, T/C (compound 0.1 µM) was 106% and 98.1% and 104% and the viability, T/C (compound 0.316 µM) was 88.7% and 93.8% and 94.7%. The viability, T/C (compound 1 µM) was 76.4% and 70% and 71.3%, the viability, T/C (compound 3.16 µM) was 58.4% and 59.2% and 52.1% and the viability, T/C (compound 10 µM) was 45.5% and 37.5% and 38.9%. For the same molecule, the IC50 (curve of compound) was 6680 nM and 4700 nM and 3460 nM.
